In experiment [1] the test system is protease of hake flesh with jellied condition. Description: Inhibition of protease in aqueous extract of hake meat with jellied condition (urea-denatured hemoglobin substrate, Folin method). It counts as biochemical. As for the experimental part: North Pacific hake (Merluccius products) on which the sporosa were parasitic was minced and homogenized with two volumes of water. After standing for 2 hours, the homogenate was centrifuged (15,000 xg, 20 minutes) under cooling condition, and the supernatant was dialyzed against tap water for 24 hours. The residual liquid remaining after the dialysis was heated at 50° C. for 20 minutes. The resulting precipitate was removed under cooling by centrifuge (15,000 xg, 30 minutes). The supernatant liquid was designated an aqueous extract of fish meat with jellied condition.
Separately, 3 ml of Mclvaine buffer solution (pH=3) was added to 1 ml of urea-denatured bovine hemoglobin (at a concentration of 4%) to prepare a substrate solution. 1 ml of a 1:1 mixture of the above obtained extract and a solution of various TPI was added to the above prepared substrate solution. The resulting mixture was incubated at 40° C. for 5 minutes. Thereafter, 5 ml of a 5% trichloroacetic acid was added to the mixture to allow the reaction to stop. The reaction mixture was left to stand for 30 minutes at room temperature. Then, the mixture was filtered through a filter paper (Toyo filter paper No. 5C). 1 ml of the filtrate was colorometrically determined at a wave length of 660 mμ by a Folin method.
The protease inhibition ratio of various proteolytic activity of the TPI is expressed as the […] relative activity with respect to 100 of the activity of an extract prepared by adding water instead of the TPI solution. That is, [formula]

Experiment [2] has as its system proteolytic enzyme of Pacific hake meat with jellied condition. Description: Proteolytic enzyme activity of treated fish meat, Pacific hake. It is filed as biochemical. The following applies: Example 11; soaked 10 minutes in 200 l cold water with 100 g sodium hydrogensulfite; control 3,200 units. The source says:
(§1) The quantity of the TPI added generally also depends upon the concentration of a proteolytic enzyme of fish meat contaminated with sporozoa. For example, North Pacific hake on which sporozoa are parasitic has a proteolytic enzyme activity of from a low level up to 30,000 units.
The resulting fish was subjected to a fillet making machine to obtain skinless fillets. […] Each fillet sample was washed with water containing 0.05% of sodium sulfite. […]
Then, fish meat was collected from the thawed hake by means of a fish meat separator. […] The fish meat was soaked in cold water in a quantity two times that of the meat and drained, and it was again soaked in cold water in the same quantity and drained to obtain 105 Kg of hydroextracted meat. […]
The frozen testing and control kneaded meats thus obtained were thawed and subjected to a model estimation method of elasticity. In testing the elasticity, the kneaded meats are usually formed into a model product of a Japanese style fish meat paste and the model product is evaluated for quality.
200 Kg of the frozen fillet of the same Pacific hake as that described in Example 9 was thawed. […] Then, the fish meat was soaked in cold water in a quantity two times that of the meat and drained. […] The first portion was soaked in cold water in a quantity two times that of the meat and drained to obtain 50 Kg of hydroextracted meat as a control. […]

For experiment [3], the system named is proteolytic enzyme of yellowfin sole meat with jellied condition. Description: Proteolytic enzyme activity of treated fish meat, yellowfin sole. It counts as biochemical, yellowfin sole (Limanda aspera).
Description: as §1
One hundred North Pacific frozen yellowfin sole containing a large number of spots of jellied condition in their muscles were thawed. These flatfish were gutted and the abdominal pores were washed.
During the dipping, the flatfish were irradiated with supersonic waves having a frequency of 18 KC for 10 minutes by using the same magnetostriction type supersonic wave oscillator as described in Example 2. Thereafter, the flatfish were drained. Then, these fish were dried at 15° C. in a low temperature dryer dehydromaster to obtain dried flatfish with salt.
350 Kg of the flatfish was headed and gutted and the meat was collected by means of a fish meat separator. […] As described in Example 9, this fish meat was twice soaked in cold water in a quantity two times that of the meat and drained to obtain 130 Kg of hydroextracted meat.
A solution of 0.6 g of antipain in 1 l of water was added to 60 Kg of each sample of the hydroextracted meat and the mixture was uniformly mixed. 10 Kg of the mixture was packed in a polyethylene bag to obtain a raw kneaded meat. A control was prepared in the same manner except that 1 l of water alone was added.
These raw kneaded meats were stored in a refrigerator at a temperature of from 4° to 5° C. for 24 hours. Thereafter, these meats were removed from the refrigerator. Then, 1.5 Kg of sodium chloride, 2.5 Kg of sugar, 4.0 Kg of starch, 1.2 Kg of mirin (sweet sake) and 0.5 Kg of sodium glutamate were added to 50 Kg of each of the raw kneaded meats, and the mixture was ground and formed into "itatuki-kamaboko" according to a conventional method.

The mark [4] stands for this setting: concentration 0.01%, 40° C., 5 minutes, pH 3.
Where [5] appears, read: concentration 0.002%, 40° C., 5 minutes, pH 3.
Setting [6] is: concentration 0.02%, 40° C., 5 minutes, pH 3.
Setting [7] is: aqueous fish meat extract, pH 3, 5 min.

Starred links: 1 amine or outer side, 2 acyl side, 3 side chain; linkers in the order of their positions; H or OH if unused. Residues, ends and D or L forms follow the SMILES beside them. CO = O=C([*:1])[*:2]

Turning to `O=C(OOC(=O)c1ccccc1)c1ccccc1` [benzoyl peroxide], the “inhibition ratio (%)” value in experiment [1] (setting [4]) is listed as 82.3%.
For the compound `CC(=O)N[C@@H](CC(C)C)C(=O)N[C@@H](CC(C)C)C(=O)N[C@H](C=O)CCCNC(=N)N` [leupeptin, reference compound], the “inhibition ratio (%)” value in experiment [1] (setting [5]) turned out to be 99.0%.
Take `O=S([O-])S(=O)(=O)[O-].[Na+].[Na+]` [sodium metabisulfite]: the “inhibition ratio (%)” value in experiment [1] (concentration 0.05%, 40° C., 5 minutes, pH 3) is 96.2%.
`O=S([O-])O.[Na+]` [sodium hydrogen sulfite]: the “proteolytic enzyme activity of hydroextracted meat” value in experiment [2] turned out to be 840 units. For the same compound, the “inhibition ratio (%)” value in experiment [1] (setting [6]) worked out at 96.1%.
In the case of `N.N.O=S(=O)(O)OOS(=O)(=O)O` [ammonium persulfate], the “inhibition ratio (%)” value in experiment [1] (concentration 0.015%, 40° C., 5 minutes, pH 3) came to 91.7%.
Consider `[K+].[K+].[O]=[Cr](=[O])([O-])[O][Cr](=[O])(=[O])[O-]` [potassium dichromate, reference compound], for which, in experiment [1], the “inhibition of the activity of the protease produced by the sporozoa (in words)” value is recorded as “high inhibition”. Moreover, the “inhibition ratio (%)” value in experiment [1] (setting [7]) is 96.1%.
As to chymostatin [reference compound], the “proteolytic enzyme activity of dried flatfish with salt whose muscle was softened and partially depressed” value in experiment [3] (Example 7, dipped 2 hours in 10% sodium chloride containing 0.01% chymostatin, supersonic waves 18 KC 10 minutes, muscles had 5,000 units before) is 120 units. Besides, in experiment [1] (setting [5]), the “inhibition ratio (%)” value is listed as 97.0%.
Consider `O=S([O-])[O-].[Na+].[Na+]` [sodium sulfite], for which, in experiment [1] (setting [6]), the “inhibition ratio (%)” value is listed as 93.4%.
Turning to sodium chlorite, the “inhibition ratio (%)” value in experiment [1] (setting [4]) is given as 100.0%.
Regarding `O=NO` [sodium nitrite], in experiment [1] (setting [7]), the “inhibition ratio (%)” value is 90.2%.
Take `OO` [hydrogen peroxide]: the “inhibition ratio (%)” value came to 86.8% in experiment [1] (concentration 0.001%, 40° C., 5 minutes, pH 3) and 100.0% in experiment [1] (setting [4]).
Turning to `OCl` [sodium hypochlorite], the “inhibition ratio (%)” value in experiment [1] (setting [4]) was determined as 87.8%.
On to `O=[N+]([O-])[O-].[K+]` [potassium nitrate, reference compound], for which the “inhibition ratio (%)” value in experiment [1] (setting [4]) is -1.4%.
As for `CC(C)[C@H](NC(=O)[C@H](CCCNC(=N)N)NC(=O)N[C@@H](Cc1ccccc1)C(=O)O)C(=O)N[C@H](C=O)CCCNC(=N)N` [antipain] ({Phe-CO}-Arg-Val-Arg-aldehyde), the “proteolytic enzyme activity of raw kneaded meat” value in experiment [3] (Example 12, 0.6 g antipain in 1 l water per 60 Kg hydroextracted meat, control 1,140 units) is on record as 980 units. The “proteolytic enzyme activity of ground meat” value in experiment [3] (Example 12, after 24 hours at 4° to 5° C. and grinding with salt, sugar, starch, control 1,080 units) was determined as 23 units. For the same compound, the “inhibition ratio (%)” value in experiment [1] (setting [5]) was found to be 72.9%.
On to `N.O.O.O.O.O.O.O.O.O.O.O.O.O=S(=O)([O-])O.O=S(=O)([O-])[O-].[Al+3]` [ammonium alum], for which, in experiment [1] (setting [4]), the “inhibition ratio (%)” value came out at 89.8%.
The same measure, in the same setting: the figure for `[O][Cl+][O-]` [chlorine dioxide] is 100.0%; for `OCl` [hypochlorous acid] it is 88.5%; for `[Ca+2].[O-]Cl.[O-]Cl` [calcium hypochlorite] it is 98.1%.
Still for that read-out and setting: the result for `[O]=[Ca]` [calcium oxide] reads 100.0%.
